Data: article PMC5218480 (PLoS ONE, 2017)

System: MV-4-11 cells
Test: Gene expression microarray analysis (Affymetrix PrimeView) and GSEA
Assay type: cell-based, human
Set-up: RFU PODN (11730768_x_at) / Fold change /veh PODN (11730768_x_at) / RFU LINC00158 (11744669_a_at) / Fold change /veh LINC00158 (11744669_a_at) / RFU DUSP10 (11751237_a_at) / Fold change /veh DUSP10 (11751237_a_at) / RFU ID3 (11757404_x_at) / Fold change /veh ID3 (11757404_x_at) / RFU PLEKHG5 (11737974_s_at) / Fold change /veh PLEKHG5 (11737974_s_at) / RFU LRRC4B (11730491_at) / Fold change /veh LRRC4B (11730491_at) / RFU GIMAP4 (11747438_a_at) / Fold change /veh GIMAP4 (11747438_a_at) / RFU KRT8 (11758183_x_at) / Fold change /veh KRT8 (11758183_x_at) / RFU CNN1 (11734310_a_at) / Fold change /veh CNN1 (11734310_a_at) / RFU VPS37D (11726825_at) / Fold change /veh VPS37D (11726825_at) / RFU C10orf10 (11716522_x_at) / Fold change /veh C10orf10 (11716522_x_at) / RFU KIR2DL2 /// KIR2DL4 /// KIR2DL5A /// KIR2DL5B /// KIR2DS1 /// KIR2DS2 /// KIR2DS3 /// KIR2DS4 /// KIR3DL3 /// KIR3DL3 /// KIR3DS1 (11738374_at) / Fold change /veh KIR2DL2 /// KIR2DL4 /// KIR2DL5A /// KIR2DL5B /// KIR2DS1 /// KIR2DS2 /// KIR2DS3 /// KIR2DS4 /// KIR3DL3 /// KIR3DL3 /// KIR3DS1 (11738374_at) / RFU C1QL1 (11718748_at) / Fold change /veh C1QL1 (11718748_at) / RFU TMPRSS4 (11747572_a_at) / Fold change /veh TMPRSS4 (11747572_a_at) / RFU HAMP (11756126_x_at) / Fold change /veh HAMP (11756126_x_at) / RFU RNFT2 (11725882_a_at) / Fold change /veh RNFT2 (11725882_a_at) / RFU NR4A2 (11747474_a_at) / Fold change /veh NR4A2 (11747474_a_at) / RFU ABCC12 (11746883_a_at) / Fold change /veh ABCC12 (11746883_a_at) / RFU TMEM136 (11760407_x_at) / Fold change /veh TMEM136 (11760407_x_at) / RFU CLDN22 /// WWC2 (11732394_at) / Fold change /veh CLDN22 /// WWC2 (11732394_at) / RFU HLA-DPB1 (11760878_x_at) / Fold change /veh HLA-DPB1 (11760878_x_at) / RFU SPINT1 (11716480_a_at) / Fold change /veh SPINT1 (11716480_a_at) / RFU GAP43 (11754022_s_at) / Fold change /veh GAP43 (11754022_s_at) / RFU A4GNT (11735810_at) / Fold change /veh A4GNT (11735810_at) / RFU PRB3 (11715151_x_at) / Fold change /veh PRB3 (11715151_x_at) / RFU TUBB4B (11761932_at) / Fold change /veh TUBB4B (11761932_at) / RFU CAPN14 (11732068_a_at) / Fold change /veh CAPN14 (11732068_a_at) / RFU TMCC2 (11721928_a_at) / Fold change /veh TMCC2 (11721928_a_at) / RFU IRGQ (11745062_a_at) / Fold change /veh IRGQ (11745062_a_at) / RFU FAM174B (11720279_a_at) / Fold change /veh FAM174B (11720279_a_at) / RFU TMPRSS4 (11748680_a_at) / Fold change /veh TMPRSS4 (11748680_a_at) / RFU FAM212B (11763350_a_at) / Fold change /veh FAM212B (11763350_a_at) / RFU PLEKHG5 (11743358_a_at) / Fold change /veh PLEKHG5 (11743358_a_at) / RFU ZSCAN30 (11745921_a_at) / Fold change /veh ZSCAN30 (11745921_a_at) / RFU CMKLR1 (11741424_a_at) / Fold change /veh CMKLR1 (11741424_a_at) / RFU LOC101060620 /// MAPK8IP1 (11723275_at) / Fold change /veh LOC101060620 /// MAPK8IP1 (11723275_at) / RFU SPTSSB (11747773_x_at) / Fold change /veh SPTSSB (11747773_x_at) / RFU PRSS12 (11739890_at) / Fold change /veh PRSS12 (11739890_at) / RFU BIN1 (11741810_x_at) / Fold change /veh BIN1 (11741810_x_at) / RFU WNT11 (11732464_a_at) / Fold change /veh WNT11 (11732464_a_at) / RFU C10orf10 (11716521_a_at) / Fold change /veh C10orf10 (11716521_a_at) / RFU C5orf56 (11738089_at) / Fold change /veh C5orf56 (11738089_at) / RFU CYB561 (11721691_x_at) / Fold change /veh CYB561 (11721691_x_at) / RFU ANKRD19P (11752326_a_at) / Fold change /veh ANKRD19P (11752326_a_at) / RFU OR2T12 /// OR2T33 /// OR2T8 (11738714_s_at) / Fold change /veh OR2T12 /// OR2T33 /// OR2T8 (11738714_s_at) / RFU VCAN (11748164_a_at) / Fold change /veh VCAN (11748164_a_at) / RFU JSRP1 (11732532_at) / Fold change /veh JSRP1 (11732532_at) / RFU KRTAP10-11 (11738290_x_at) / Fold change /veh KRTAP10-11 (11738290_x_at) / RFU MYO3A (11730013_a_at) / Fold change /veh MYO3A (11730013_a_at) / RFU EBF3 (11725865_a_at) / Fold change /veh EBF3 (11725865_a_at) / RFU CAMK2N1 (11719241_x_at) / Fold change /veh CAMK2N1 (11719241_x_at) / RFU C5orf56 (11738088_a_at) / Fold change /veh C5orf56 (11738088_a_at) / RFU OLFML3 (11715873_a_at) / Fold change /veh OLFML3 (11715873_a_at) / RFU LOC100653217 /// NTM (11731650_a_at) / Fold change /veh LOC100653217 /// NTM (11731650_a_at) / RFU MAPK11 (11762145_a_at) / Fold change /veh MAPK11 (11762145_a_at) / RFU FIZ1 (11724087_x_at) / Fold change /veh FIZ1 (11724087_x_at) / RFU OASL (11726364_x_at) / Fold change /veh OASL (11726364_x_at) / RFU SOX15 (11748057_x_at) / Fold change /veh SOX15 (11748057_x_at) / RFU CD79A (11719716_a_at) / Fold change /veh CD79A (11719716_a_at) / RFU HIST1H1D (11736915_at) / Fold change /veh HIST1H1D (11736915_at) / RFU CASKIN2 (11723855_a_at) / Fold change /veh CASKIN2 (11723855_a_at) / RFU LOC730098 (11760151_x_at) / Fold change /veh LOC730098 (11760151_x_at) / RFU OR4N2 (11742367_at) / Fold change /veh OR4N2 (11742367_at) / RFU PRRT2 (11749266_a_at) / Fold change /veh PRRT2 (11749266_a_at) / RFU SNX32 (11753110_a_at) / Fold change /veh SNX32 (11753110_a_at) / RFU CDHR5 (11726645_a_at) / Fold change /veh CDHR5 (11726645_a_at) / RFU RCAN1 (11760418_a_at) / Fold change /veh RCAN1 (11760418_a_at) / RFU FAM167A (11723789_a_at) / Fold change /veh FAM167A (11723789_a_at) / RFU FAM26E (11764081_at) / Fold change /veh FAM26E (11764081_at) / RFU ISYNA1 (11749810_s_at) / Fold change /veh ISYNA1 (11749810_s_at) / RFU ACY1 (11761880_at) / Fold change /veh ACY1 (11761880_at) / RFU 11764098_at / Fold change /veh 11764098_at / RFU SAMD14 (11745864_x_at) / Fold change /veh SAMD14 (11745864_x_at) / RFU NPB (11741838_a_at) / Fold change /veh NPB (11741838_a_at) / RFU TMPRSS6 (11731388_a_at) / Fold change /veh TMPRSS6 (11731388_a_at) / RFU KRTAP10-2 (11738614_at) / Fold change /veh KRTAP10-2 (11738614_at) / RFU ARHGAP8 /// PRR5-ARHGAP8 (11727945_x_at) / Fold change /veh ARHGAP8 /// PRR5-ARHGAP8 (11727945_x_at) / RFU KRTAP5-7 /// NADSYN1 (11734609_at) / Fold change /veh KRTAP5-7 /// NADSYN1 (11734609_at) / RFU RASL12 (11751679_a_at) / Fold change /veh RASL12 (11751679_a_at) / RFU CDKN2B (11736163_a_at) / Fold change /veh CDKN2B (11736163_a_at) / RFU PRF1 (11729649_at) / Fold change /veh PRF1 (11729649_at) / RFU, ZNF638 /// ZNF638-IT1 / Fold change vs veh, ZNF638 /// ZNF638-IT1 / RFU, PANK3 / Fold change vs veh, PANK3 / RFU, SH3YL1 / Fold change vs veh, SH3YL1 / RFU, ZEB2 / Fold change vs veh, ZEB2 / RFU, NRIP1 / Fold change vs veh, NRIP1 / RFU, PTTG1IP / Fold change vs veh, PTTG1IP / RFU, CAPN2 / Fold change vs veh, CAPN2 / RFU, MED14 / Fold change vs veh, MED14 / RFU, SNORA58 / Fold change vs veh, SNORA58 / RFU, C1orf63 / Fold change vs veh, C1orf63 / RFU, LRRFIP1 / Fold change vs veh, LRRFIP1 / RFU, NDUFAF7 / Fold change vs veh, NDUFAF7 / RFU, SLC12A2 / Fold change vs veh, SLC12A2 / RFU, IBTK / Fold change vs veh, IBTK / RFU, ESF1 / Fold change vs veh, ESF1 / Fold change vs veh, TMEM50B / RFU, TAOK1 / Fold change vs veh, TAOK1 / RFU, ACBD3 / Fold change vs veh, ACBD3 / RFU, TMA16 / Fold change vs veh, TMA16 / RFU, RWDD3 / Fold change vs veh, RWDD3 / RFU, BCAT1 / Fold change vs veh, BCAT1 / RFU, EDEM3 / Fold change vs veh, EDEM3 / RFU, TMEM33 / Fold change vs veh, TMEM33 / RFU, WDR75 / Fold change vs veh, WDR75 / RFU, AHCTF1 / Fold change vs veh, AHCTF1 / RFU, TFRC / Fold change vs veh, TFRC / RFU, ZDHHC17 / Fold change vs veh, ZDHHC17 / RFU, NOM1 / Fold change vs veh, NOM1 / RFU, ARL8B / Fold change vs veh, ARL8B / RFU, ZBTB11 / Fold change vs veh, ZBTB11 / RFU, TAMM41 / Fold change vs veh, TAMM41 / RFU, KIAA1704 /// LOC100996395 / Fold change vs veh, KIAA1704 /// LOC100996395 / RFU, ING1 / Fold change vs veh, ING1 / RFU, TRMT61B / Fold change vs veh, TRMT61B / RFU, FUBP3 / Fold change vs veh, FUBP3 / RFU, TP53 / Fold change vs veh, TP53 / RFU, TNKS2 / Fold change vs veh, TNKS2 / RFU, ZFP14 / Fold change vs veh, ZFP14 / RFU, ACTR2 / Fold change vs veh, ACTR2 / RFU, PPP3R1 / Fold change vs veh, PPP3R1 / RFU, PIK3R1 / Fold change vs veh, PIK3R1 / RFU, HNRNPA1 / Fold change vs veh, HNRNPA1 / RFU, RNF170 / Fold change vs veh, RNF170 / RFU, ZNF28 / Fold change vs veh, ZNF28 / RFU, RNGTT / Fold change vs veh, RNGTT / RFU, OGT / Fold change vs veh, OGT / RFU, BRD1 / Fold change vs veh, BRD1 / RFU, MARS / Fold change vs veh, MARS / RFU, ZNF655 / Fold change vs veh, ZNF655 / RFU, FAHD1 / Fold change vs veh, FAHD1 / RFU, BDP1 / Fold change vs veh, BDP1 / RFU, LRRCC1 / Fold change vs veh, LRRCC1 / RFU, ARID1A / Fold change vs veh, ARID1A / RFU, ZNF146 / Fold change vs veh, ZNF146 / RFU, ZNF330 / Fold change vs veh, ZNF330 / RFU, GPN3 / Fold change vs veh, GPN3 / RFU, C9orf123 / Fold change vs veh, C9orf123 / RFU, N4BP2L2 / Fold change vs veh, N4BP2L2 / RFU, ARFIP1 / Fold change vs veh, ARFIP1 / RFU, FAM179B / Fold change vs veh, FAM179B / RFU, BCL10 / Fold change vs veh, BCL10 / RFU, UHRF1BP1L / Fold change vs veh, UHRF1BP1L / RFU, BET1 / Fold change vs veh, BET1 / RFU, CNOT2 / Fold change vs veh, CNOT2 / RFU, ZNF268 / Fold change vs veh, ZNF268 / Fold change vs veh, ZNF507 / RFU, DGCR2 / Fold change vs veh, DGCR2 / RFU, WDSUB1 / Fold change vs veh, WDSUB1 / Fold change vs veh, HSP90B1 /// MIR3652 / RFU, ADSS / Fold change vs veh, ADSS / RFU, GK / Fold change vs veh, GK / RFU, ZNF148 / Fold change vs veh, ZNF148 / RFU, TAF9 / Fold change vs veh, TAF9 / RFU, SLC1A5 / Fold change vs veh, SLC1A5 / RFU, SLMO2 / Fold change vs veh, SLMO2 / RFU, ABCC4 / Fold change vs veh, ABCC4 / RFU, LOC101060439 /// RAP1B / Fold change vs veh, LOC101060439 /// RAP1B / RFU, RFX7 / Fold change vs veh, RFX7 / RFU, GTPBP10 / Fold change vs veh, GTPBP10 / RFU, CNEP1R1 / Fold change vs veh, CNEP1R1 / RFU, BIVM-ERCC5 /// ERCC5 / Fold change vs veh, BIVM-ERCC5 /// ERCC5 / RFU, ILF3 / Fold change vs veh, ILF3 / RFU 11762660_at / Fold change /veh 11762660_at / RFU VCAN (11757783_s_at) / Fold change /veh VCAN (11757783_s_at) / RFU DDX43 (11728927_at) / Fold change /veh DDX43 (11728927_at) / RFU KRT8 (11758188_x_at) / Fold change /veh KRT8 (11758188_x_at) / RFU NKD1 (11759106_at) / Fold change /veh NKD1 (11759106_at) / RFU SRD5A1 (11742802_a_at) / Fold change /veh SRD5A1 (11742802_a_at) / RFU TPSAB1 /// TPSB2 (11721975_s_at) / Fold change /veh TPSAB1 /// TPSB2 (11721975_s_at) / RFU GSTM3 (11746129_a_at) / Fold change /veh GSTM3 (11746129_a_at) / RFU IL23R (11737362_x_at) / Fold change /veh IL23R (11737362_x_at) / RFU TMEM51 (11727254_a_at) / Fold change /veh TMEM51 (11727254_a_at) / RFU PIWIL2 (11732686_x_at) / Fold change /veh PIWIL2 (11732686_x_at) / RFU ORM1 (11744905_x_at) / Fold change /veh ORM1 (11744905_x_at) / RFU CCDC152 (11743942_at) / Fold change /veh CCDC152 (11743942_at) / RFU ECM1 (11717891_a_at) / Fold change /veh ECM1 (11717891_a_at) / RFU IL23R (11748794_a_at) / Fold change /veh IL23R (11748794_a_at) / RFU TNFAIP8L3 (11732012_x_at) / Fold change /veh TNFAIP8L3 (11732012_x_at) / RFU MBOAT4 (11741988_at) / Fold change /veh MBOAT4 (11741988_at) / RFU 11764193_at / Fold change /veh 11764193_at / RFU TMEM53 (11763286_at) / Fold change /veh TMEM53 (11763286_at) / RFU MAGEB2 (11727129_at) / Fold change /veh MAGEB2 (11727129_at) / RFU TMEM200A (11744735_a_at) / Fold change /veh TMEM200A (11744735_a_at) / RFU CCDC152 (11751479_a_at) / Fold change /veh CCDC152 (11751479_a_at) / RFU FAM211A (11726209_a_at) / Fold change /veh FAM211A (11726209_a_at) / RFU RGS16 (11746705_a_at) / Fold change /veh RGS16 (11746705_a_at) / RFU VCAN (11755009_s_at) / Fold change /veh VCAN (11755009_s_at) / RFU RHOB (11743442_s_at) / Fold change /veh RHOB (11743442_s_at) / RFU RGS16 (11720943_a_at) / Fold change /veh RGS16 (11720943_a_at) / RFU RGS16 (11720944_at) / Fold change /veh RGS16 (11720944_at) / RFU, VPS4B / Fold change vs veh, VPS4B / RFU, CREB1 / Fold change vs veh, CREB1 / RFU, DNAJC13 / Fold change vs veh, DNAJC13 / RFU, GNAQ / Fold change vs veh, GNAQ / RFU, CDK5R1 / Fold change vs veh, CDK5R1 / RFU, ZRANB3 / Fold change vs veh, ZRANB3 / RFU, CUL4A / Fold change vs veh, CUL4A / RFU, CCNY / Fold change vs veh, CCNY / RFU, UFL1 / Fold change vs veh, UFL1 / RFU, COG3 / Fold change vs veh, COG3 / RFU, DIAPH2 / Fold change vs veh, DIAPH2 / RFU, SKA2 / Fold change vs veh, SKA2 / RFU, AFF3 / Fold change vs veh, AFF3 / RFU, LMF1 / Fold change vs veh, LMF1 / RFU, IPO11 / Fold change vs veh, IPO11 / RFU, DFFB / Fold change vs veh, DFFB / RFU, FOXP1 / Fold change vs veh, FOXP1 / RFU, CARD8 / Fold change vs veh, CARD8 / RFU, STRN3 / Fold change vs veh, STRN3 / RFU, ADK / Fold change vs veh, ADK / RFU, RASSF2 / Fold change vs veh, RASSF2 / RFU, WIPF1 / Fold change vs veh, WIPF1 / RFU, LARP1B / Fold change vs veh, LARP1B / RFU, RASA1 / Fold change vs veh, RASA1 / RFU, RB1 / Fold change vs veh, RB1 / RFU, PPFIA1 / Fold change vs veh, PPFIA1 / RFU, MAT2A / Fold change vs veh, MAT2A / RFU, CCT5 / Fold change vs veh, CCT5 / RFU, WDR92 / Fold change vs veh, WDR92 / RFU, CUX1 / Fold change vs veh, CUX1 / RFU, TTC7A / Fold change vs veh, TTC7A / RFU, TMEM135 / Fold change vs veh, TMEM135 / RFU, DEPTOR / Fold change vs veh, DEPTOR / RFU, CPM / Fold change vs veh, CPM / RFU, DNAJB6 / Fold change vs veh, DNAJB6 / RFU, CACNA2D3 / Fold change vs veh, CACNA2D3 / RFU, DTX4 / Fold change vs veh, DTX4 / RFU, TFCP2 / Fold change vs veh, TFCP2 / RFU, GMCL1 /// GMCL1P1 / Fold change vs veh, GMCL1 /// GMCL1P1 / RFU, AEBP2 / Fold change vs veh, AEBP2 / RFU, SNHG1 /// SNORD22 /// SNORD25 /// SNORD26 /// SNORD27 /// SNORD28 /// SNORD29 /// SNORD31 / Fold change vs veh, SNHG1 /// SNORD22 /// SNORD25 /// SNORD26 /// SNORD27 /// SNORD28 /// SNORD29 /// SNORD31 / Fold change (Aza/veh), C12orf56 (ProbeSet 11735607_a_at) / Fold change (ACY-1035/veh), C12orf56 (ProbeSet 11735607_a_at) / Fold change (Aza/veh), FGFR1OP (ProbeSet 11751329_s_at) / Fold change (ACY-1035/veh), FGFR1OP (ProbeSet 11751329_s_at) / Fold change (Aza/veh), VPS36 (ProbeSet 11739960_a_at) / Fold change (ACY-1035/veh), VPS36 (ProbeSet 11739960_a_at) / RFU SYPL1 (11715823_x_at) / Fold change /veh SYPL1 (11715823_x_at) / RFU IGFBP7 (11715501_s_at) / Fold change /veh IGFBP7 (11715501_s_at) / RFU REEP3 (11722064_at) / Fold change /veh REEP3 (11722064_at) / RFU IGLL1 (11728026_x_at) / Fold change /veh IGLL1 (11728026_x_at): dose or concentration left out as unconfirmed
Conditions: ProbeSet 11753616_s_at; LIST B

Nc1ncn([C@@H]2O[C@H](CO)[C@@H](O)[C@H]2O)c(=O)n1 [azacitidine]
RFU, ARL8B: 221.87 RFU
